Data on four compounds can be found in US20150184144A1, “Liquid Enzyme Composition and Method for Enzyme Recovery” (Novozymes A/S, priority 2012, published 2015).

This assay relates to Lactobacillus (L. buchneri and L. para paracasei). Description: Challenge screening of liquid enzyme formulations inoculated with Lactobacillus, viable cells (CFU). Format: cell-based. The settings on record: for CFU/ml After 1 week / CFU/ml After 2 weeks: 20-25° C. The protocol:
The antimicrobial effect may be determined by analyzing viable cells (CFU) of the liquid formulation after inoculating with Lactobacillus and incubating for 1-2 weeks at 20-25° C. and comparing with a similar liquid composition without the fatty acid or salt.
Challenge screening was performed by inoculating with 10^5-10^6 CFU/ml of Lactobacillus (L. buchneri and L. para paracasei), incubating for two weeks at 20-25° C., and analyzing viable cells (CFU) before and after inoculation and after 1 and 2 weeks.
The results are shown as CFU/ml (detection limit 100): […]

Where [1] appears, read: Example 5: 0.3% w/w inhibitor in glucoamylase formulation, pH 4.7.
[2] abbreviates: Example 5: glucoamylase (mixture of two variants) formulation, 48% w/w solids, pH 4.7, 0.3% w/w Na-octanoate or sodium benzoate instead, with or without 0.3% Na acetate trihydrate.
Where [3] appears, read: Example 5: glucoamylase formulation, pH 4.7, 0.3% w/w Na-octanoate or sodium benzoate instead, with or without 0.3% Na acetate trihydrate.
[4] abbreviates: Example 1: Talaromyces glucoamylase formulation, 0.5% w/w Na-hexanoate, pH 5.0, detection limit 100.

`CC(=O)[O-].O.O.O.[Na+]` [acetate, Na acetate trihydrate, reference compound]: the “antimicrobial effect against Lactobacillus (in words)” value (“antimicrobial effect” for short) under setting [1] is “not effective”.

Consider `CCCCCCCC(=O)[O-].[Na+]` [Octanoate, Na-Caprylate (Na-octanoate)], for which, for the setting “Example 4: 0.5% w/w Na-octanoate in glucoamylase formulation, pH 5.0, compared with formate+sorbate+propionate”, the “antimicrobial effect” value is given as “strong antimicrobial (germicidal) effect”. Also, the “antimicrobial effect” value under setting [1] is “strong antimicrobial (germicidal) effect”. Further, the “CFU/ml Before inoculation” value under setting [2] is listed as “≦100 CFU/ml”. Under setting [3], the “CFU/ml After inoculation” value was 170000 CFU/ml, the “CFU/ml After 1 week” value was “≦100 CFU/ml” and the “CFU/ml After 2 weeks” value is listed as “≦100 CFU/ml”.

For `O=C([O-])c1ccccc1.[Na+]` [Benzoate, sodium benzoate, reference compound], the “antimicrobial effect” value under setting [1] is on record as “not effective”. Under setting [2], the “CFU/ml Before inoculation” value was “≦100 CFU/ml”. Under setting [3], the “CFU/ml After inoculation” value is given as 170000 CFU/ml, the “CFU/ml After 1 week” value turned out to be 150000 CFU/ml and the “CFU/ml After 2 weeks” value was determined as 120000 CFU/ml.

In the case of `CCCCCC(=O)[O-].[Na+]` [Na-hexanoate], the “antimicrobial effect” value is listed as “antimicrobial (germicidal) effect” (Example 1: 0.5% w/w Na-hexanoate in glucoamylase formulation, pH 5.0); “antimicrobial (germicidal) effect” (Example 2: 0.5% w/w Na-hexanoate in xylanase and cellulase formulation, pH 4.6); “antimicrobial (germicidal) effect” (Example 3: 0.5% w/w Na-hexanoate in cellulase and xylanase formulation, pH 4.55). Moreover, the “CFU/ml After 1 week” value under setting [4] is “≦100 CFU/ml”. The “CFU/ml After 2 weeks” value under setting [4] is “≦100 CFU/ml”. Further, the “CFU/ml After inoculation” value (Example 1: Talaromyces glucoamylase formulation, 0.5% w/w Na-hexanoate, pH 5.0, inoculated with 10^5-10^6 CFU/ml) is on record as 180000 CFU/ml. Also, under “Example 1: Talaromyces glucoamylase formulation, 43% w/w solids (glucose), 0.5% w/w Na-hexanoate, pH 5.0, detection limit 100”, the “CFU/ml Before inoculation” value was “≦100 CFU/ml”.
